{"source": "patent US10799475B2", "about": "“Substituted phenyl aziridine precursor analogs for inhibiting androgen-independent prostate cancer cell growth” (Northwestern University, priority 2007, dated 2020)", "key": {"[1]": {"molecular_target": "T1, GR (Homo sapiens, UniProt P04150)", "T1 sequence (P04150 1-777)": "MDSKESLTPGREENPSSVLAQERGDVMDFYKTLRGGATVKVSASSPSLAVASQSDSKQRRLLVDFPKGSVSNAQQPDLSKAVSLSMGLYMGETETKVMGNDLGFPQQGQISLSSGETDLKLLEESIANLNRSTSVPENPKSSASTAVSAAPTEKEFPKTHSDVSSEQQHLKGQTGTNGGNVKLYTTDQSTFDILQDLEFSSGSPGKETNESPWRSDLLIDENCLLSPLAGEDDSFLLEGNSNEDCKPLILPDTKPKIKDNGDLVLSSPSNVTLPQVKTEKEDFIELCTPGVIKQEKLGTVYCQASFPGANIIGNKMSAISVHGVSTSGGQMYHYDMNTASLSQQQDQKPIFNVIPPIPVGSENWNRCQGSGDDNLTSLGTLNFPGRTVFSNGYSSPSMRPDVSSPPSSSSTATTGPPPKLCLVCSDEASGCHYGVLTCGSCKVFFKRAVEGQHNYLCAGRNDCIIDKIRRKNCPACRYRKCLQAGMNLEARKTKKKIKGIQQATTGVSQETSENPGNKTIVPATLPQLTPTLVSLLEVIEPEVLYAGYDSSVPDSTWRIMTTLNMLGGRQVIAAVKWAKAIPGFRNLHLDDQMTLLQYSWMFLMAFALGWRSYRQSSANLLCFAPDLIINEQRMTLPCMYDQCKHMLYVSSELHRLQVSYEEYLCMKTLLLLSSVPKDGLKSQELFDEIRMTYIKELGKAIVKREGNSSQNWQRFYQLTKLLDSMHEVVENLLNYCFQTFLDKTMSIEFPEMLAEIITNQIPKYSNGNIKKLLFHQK", "assay": "TAT.Luc dual Luciferase assay of GR transactivation in PC cells", "assay_type": "cell-based", "parameters": "expressed in transfected cells; host or cells: LNCaP-GR (lentiviral GR); also DU145 and PC3 (endogenous GR)", "settings": "24 hours", "method": "FIG. 3. Effect of CpdA on GR function in PC cells. A. & B. CpdA-activated GR nuclear translocation. Cells were treated with CpdA, glucocorticoid FA, or anti-glucocorticoid RU486. Panel A (immunofluorescence). Panel B (Western blotting of nuclear protein using HDAC-1 and β-tubulin as protein loading controls). C. CpdA decreased GR-DNA binding (EMSA, nuclear proteins). LNCaP-GR cells were treated with 0.01% DMSO (control), Dex (10^−7 M) or CpdA (10^−5 M) for 4 hours. D. & E. CpdA effect on GR function. PC cells were transiently transfected with TAT.Luc (D) or κB.Luc (E), and control Renilla Luciferase reporters, treated with Dex (10^−6 M) or CpdA (10^−5 M) for 24 hours. For activation of NF-κB, cells were co-transfected with CMV.IKKβ plasmid (in panel E). Reporter activity was assessed by dual Luciferase assay and presented as factor of change.\nFIG. 4. CpdA effect on GR function. A. & B. PC cells were transiently transfected with TAT.Luc (A) or κB.Luc (B), and control Renilla Luciferase reporters. Cells were treated with Dex (10^−6 M) and CpdA (10^−5 M) for 24 hours. For activation of NF-κB (as shown in panel B), cells were co-transfected with CMV.IKKβ plasmid. Reporter activity was assessed by dual Luciferase assay and presented as factor of change. […]"}, "[2]": {"system": "B16F10 cells", "assay_type": "cell-based, mouse", "settings": "CpdA 5×10^−6 M, 72 hours"}, "[3]": {"system": "DU145 cells", "assay_type": "cell-based, human"}, "[4]": {"system": "PC3 cells", "assay_type": "cell-based, human"}, "[5]": {"settings": "rodents, proposed concentration 12.5 mg/kg; cited from earlier work"}, "[6]": {"molecular_target": "T2, AR (Homo sapiens, UniProt P10275)", "T2 sequence (P10275 1-920)": "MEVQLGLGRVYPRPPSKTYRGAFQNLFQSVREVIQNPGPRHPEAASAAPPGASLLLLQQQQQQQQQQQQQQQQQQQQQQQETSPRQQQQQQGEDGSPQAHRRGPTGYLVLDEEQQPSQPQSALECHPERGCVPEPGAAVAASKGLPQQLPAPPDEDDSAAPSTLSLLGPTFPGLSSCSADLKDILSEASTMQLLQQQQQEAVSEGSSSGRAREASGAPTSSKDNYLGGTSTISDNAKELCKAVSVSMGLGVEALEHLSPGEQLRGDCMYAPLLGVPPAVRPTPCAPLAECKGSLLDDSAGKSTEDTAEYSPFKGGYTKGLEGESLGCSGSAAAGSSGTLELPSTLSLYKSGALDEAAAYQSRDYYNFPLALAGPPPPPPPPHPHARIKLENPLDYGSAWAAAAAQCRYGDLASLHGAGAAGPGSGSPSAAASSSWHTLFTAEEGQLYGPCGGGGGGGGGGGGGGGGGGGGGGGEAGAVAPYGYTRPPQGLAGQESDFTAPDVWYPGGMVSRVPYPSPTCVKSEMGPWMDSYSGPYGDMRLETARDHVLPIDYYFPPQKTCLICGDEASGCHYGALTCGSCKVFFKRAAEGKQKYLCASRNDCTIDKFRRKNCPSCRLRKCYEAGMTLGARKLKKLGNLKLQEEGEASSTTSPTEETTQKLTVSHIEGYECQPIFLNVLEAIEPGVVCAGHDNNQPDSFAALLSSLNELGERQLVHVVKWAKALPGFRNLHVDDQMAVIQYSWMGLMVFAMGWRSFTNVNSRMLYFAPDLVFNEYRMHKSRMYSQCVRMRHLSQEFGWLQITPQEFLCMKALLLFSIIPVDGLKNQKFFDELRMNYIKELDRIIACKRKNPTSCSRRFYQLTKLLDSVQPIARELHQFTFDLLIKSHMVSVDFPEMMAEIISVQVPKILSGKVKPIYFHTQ", "settings": "cited from earlier work"}, "[7]": {"system": "C8161 cells", "assay_type": "cell-based, human", "settings": "CpdA 5×10^−6 M, 72 hours"}, "[8]": {"molecular_target": "T1, GR", "assay": "GR nuclear translocation, Western blotting and immunofluorescence in LNCaP-GR cells", "assay_type": "cell-based", "parameters": "expressed in transfected cells; host or cells: LNCaP-GR (lentiviral GR); also DU145 and PC3 (endogenous GR)"}, "[9]": {"molecular_target": "T3, AR (Homo sapiens, UniProt P10275, T878A)", "T3 construct": "epithelial cells expressing endogenous AR, LNCaP prostate cells were studied; endogenous in cells; host or cells: LNCaP", "T3 sequence (P10275 1-920 T878A)": "T2 sequence (P10275 1-920) with T878A", "assay": "EMSA of AR-DNA binding in LNCaP cells", "assay_type": "cell-based"}, "[10]": {"system": "DU145 and PC3 cells", "assay": "Apoptosis by PARP cleavage, Western blotting", "assay_type": "cell-based, human"}, "[11]": {"molecular_target": "T1, GR", "assay": "EMSA of GR-DNA binding in LNCaP-GR cells", "assay_type": "cell-based", "parameters": "expressed in transfected cells; host or cells: LNCaP-GR (lentiviral GR); also DU145 and PC3 (endogenous GR)", "settings": "CpdA 10^−5 M, 4 hours"}, "[12]": {"molecular_target": "T1, GR", "settings": "cited from earlier work"}, "[13]": {"system": "PC3 and LNCaP-GR cells", "assay_type": "cell-based, human"}, "[14]": {"system": "PWR-1E cells", "assay_type": "cell-based", "settings": "tested range of concentrations"}, "[15]": {"molecular_target": "T3, AR", "assay": "AR nuclear translocation, Western blot and immunofluorescence in LNCaP cells", "assay_type": "cell-based", "settings": "16 hours"}, "[16]": {"system": "LNCaP-GR cells", "assay_type": "cell-based, human", "settings": "monolayer and colony-forming assay, data not shown"}, "[17]": {"molecular_target": "T3, AR", "assay_type": "cell-based", "settings": "LNCaP cells, CpdA 2×10^−6 M, 24 hours, basal and DHT 10^−7 M"}, "[18]": {"system": "LNCaP cells", "assay_type": "cell-based, human", "settings": "5 μM CpdA, 1-12 days"}, "[19]": {"system": "NF-κB", "assay": "κB.Luc dual Luciferase assay of GR transrepression in PC cells", "assay_type": "cell-based, human", "settings": "all studied prostate cells, basal and IKKβ-induced, CpdA 10^−5 M, 24 hours"}, "[20]": {"system": "LNCaP-AR^low cells", "assay_type": "cell-based, human", "settings": "CpdA 2×10^−6 M, 1-10 days"}, "[21]": {"system": "A375 cells", "assay_type": "cell-based, human", "settings": "CpdA 5×10^−6 M, 72 hours"}, "[22]": {"system": "PC cells", "assay_type": "cell-based, human", "settings": "72 hours"}, "[23]": {"settings": "CpdA 10^−9 M−2×10^−5 M, 72 hours"}}, "note": "Where a chain is given by its changes, count along the chain named."}
{"smiles": "CC1(C)O[C@@H]2C[C@H]3[C@@H]4C[C@H](F)C5=CC(=O)C=C[C@]5(C)[C@@]4(F)[C@@H](O)C[C@]3(C)[C@]2(C(=O)CO)O1", "note": "[FA, fluocinolone acetonide, reference compound]", "values": [{"measurement": "induction of TAT.Luc reporter activity", "setting": "[1]; PC cells", "result": "10-15 folds"}]}
{"smiles": "CNCC(Cl)c1ccc(OC(C)=O)cc1.Cl", "note": "(centres unmarked) [CpdA, 2-(4-acetoxyphenyl)-2-chloro-N-methyl-ethylammonium chloride]", "values": [{"measurement": "growth inhibition", "setting": "[2]", "result": "strongly inhibited growth"}, {"measurement": "growth inhibition vs vehicle-treated control", "setting": "[3]", "result": "60-65%"}, {"measurement": "growth inhibition, concentration-dependent", "setting": "[3]; [23]", "result": "strongly inhibit"}, {"measurement": "growth inhibition vs vehicle-treated control", "setting": "[4]", "result": "65-85%"}, {"measurement": "growth inhibition, concentration-dependent", "setting": "[4]; [23]", "result": "strongly inhibit"}, {"measurement": "anti-inflammatory effect", "setting": "[5]", "result": "strong anti-inflammatory effect"}, {"measurement": "competition for AR binding", "setting": "[6]", "result": "does not compete with androgen for AR binding"}, {"measurement": "growth inhibition", "setting": "[7]", "result": "strongly inhibited growth"}, {"measurement": "GR nuclear translocation", "setting": "[8]", "result": "induce GR nuclear import"}, {"measurement": "AR DNA binding", "setting": "[9]", "result": "constitutively inhibit AR DNA binding and especially DHT-induced AR DNA binding"}, {"measurement": "treatment time after which apoptosis is induced (PARP cleavage)", "setting": "[10]; CpdA 2×10^−6 M", "result": "6 to 8", "unit": "days"}, {"measurement": "treatment time after which cells are sensitized to TNFα-induced apoptosis", "setting": "[10]; CpdA then TNFα 10 ng/ml for 16 hours", "result": 2, "unit": "days"}, {"measurement": "GR-DNA binding", "setting": "[11]", "result": "constitutively inhibit glucocorticoid-induced GR-DNA binding"}, {"measurement": "competition for GR binding", "setting": "[12]", "result": "competes with glucocorticoids for GR binding"}, {"measurement": "sensitivity to CpdA after GR blockage", "setting": "[13]", "result": "drastic loss of sensitivity"}, {"measurement": "GR transcriptional activation (TAT.Luc)", "setting": "[1]; LNCaP-GR, DU145 and PC3 cells, CpdA 10^−5 M", "result": "inhibit GR transcriptional activation"}, {"measurement": "growth inhibition", "setting": "[14]", "result": "rather resistant"}, {"measurement": "AR nuclear translocation", "setting": "[15]", "result": "induce AR nuclear translocation"}, {"measurement": "sensitivity to growth inhibition vs control cells infected with empty virus", "setting": "[16]", "result": "significantly more sensitive"}, {"measurement": "AR transcriptional activity", "setting": "[17]", "result": "inhibited basal and DHT-induced transcriptional activity of AR"}, {"measurement": "growth inhibition", "setting": "[18]", "result": "strong growth inhibition"}, {"measurement": "NF-κB function (κB.Luc)", "setting": "[19]", "result": "strongly inhibited"}, {"measurement": "growth inhibition", "setting": "[20]", "result": "resistant"}, {"measurement": "growth inhibition", "setting": "[21]", "result": "strongly inhibited growth"}, {"measurement": "concentration range of strong cytostatic effect", "setting": "[22]", "result": "2−10 μM"}]}
